Assay results: ChEMBL document CHEMBL4421728, “Bach1 Inhibitors in Combination with Nrf2 Activators and Pharmaceutical Compositions Thereof” (2017)

What was measured:
[1] = molecular target: T1, Transcription regulator protein BACH1 (Homo sapiens) (UniProt O14867); experiment: Inhibition of Bach1 in normal human lung fibroblasts assessed as induction of HMOX protein expression at 0.019 uM incubated for 16 to 18 hrs by immunostaining relative to control
T1 sequence (whole entry): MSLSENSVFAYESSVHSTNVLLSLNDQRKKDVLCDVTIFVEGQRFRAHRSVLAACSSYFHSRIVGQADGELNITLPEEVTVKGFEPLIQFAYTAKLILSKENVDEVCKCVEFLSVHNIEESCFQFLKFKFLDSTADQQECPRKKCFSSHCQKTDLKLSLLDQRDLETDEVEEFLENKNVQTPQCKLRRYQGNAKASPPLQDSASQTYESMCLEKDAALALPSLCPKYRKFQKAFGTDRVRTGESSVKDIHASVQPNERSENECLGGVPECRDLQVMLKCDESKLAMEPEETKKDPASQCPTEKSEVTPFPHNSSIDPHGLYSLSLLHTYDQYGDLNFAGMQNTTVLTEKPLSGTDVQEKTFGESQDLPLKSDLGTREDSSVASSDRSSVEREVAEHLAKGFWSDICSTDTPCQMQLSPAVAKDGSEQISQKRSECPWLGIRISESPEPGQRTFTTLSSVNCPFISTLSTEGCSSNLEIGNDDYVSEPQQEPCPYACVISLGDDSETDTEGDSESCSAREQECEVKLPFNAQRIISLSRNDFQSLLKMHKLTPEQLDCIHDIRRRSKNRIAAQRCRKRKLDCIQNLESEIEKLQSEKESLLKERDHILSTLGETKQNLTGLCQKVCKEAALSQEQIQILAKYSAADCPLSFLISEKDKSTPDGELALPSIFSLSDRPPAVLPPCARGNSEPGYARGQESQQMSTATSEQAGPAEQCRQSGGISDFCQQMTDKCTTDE

[2] = molecular target: T1, Transcription regulator protein BACH1 (Homo sapiens); experiment: Inhibition of Bach1 in normal human lung fibroblasts assessed as induction of HMOX protein expression by measuring HMOX positive cells level at 0.019 uM incubated for 16 to 18 hrs by immunostaining relative to control DMSO; design: scale not given: the % may be the effect or the level left
[3] = molecular target: T1, Transcription regulator protein BACH1 (Homo sapiens); experiment: Inhibition of Bach1 in normal human lung fibroblasts assessed as induction of HMOX protein expression by measuring HMOX positive cells level at 0.039 uM incubated for 16 to 18 hrs by immunostaining relative to control DMSO; design: scale not given: the % may be the effect or the level left
[4] = molecular target: T1, Transcription regulator protein BACH1 (Homo sapiens); experiment: Inhibition of Bach1 in normal human lung fibroblasts assessed as induction of HMOX protein expression by measuring HMOX positive cells level at 0.078 uM in presence of 0.1 uM Nrf2 activator DMF incubated for 16 to 18 hrs by immunostaining relative to control DMSO; design: scale not given: the % may be the effect or the level left
[5] = molecular target: T1, Transcription regulator protein BACH1 (Homo sapiens); experiment: Inhibition of Bach1 in normal human lung fibroblasts assessed as induction of HMOX protein expression by measuring HMOX positive cells level at 0.019 uM in presence of 0.3 uM Nrf2 activator DMF incubated for 16 to 18 hrs by immunostaining relative to control DMSO; design: scale not given: the % may be the effect or the level left
[6] = molecular target: T1, Transcription regulator protein BACH1 (Homo sapiens); experiment: Inhibition of Bach1 in normal human lung fibroblasts assessed as induction of HMOX protein expression by measuring HMOX positive cells level at 0.039 uM in presence of 0.3 uM Nrf2 activator DMF incubated for 16 to 18 hrs by immunostaining relative to control DMSO; design: scale not given: the % may be the effect or the level left
[7] = molecular target: T1, Transcription regulator protein BACH1 (Homo sapiens); experiment: Inhibition of Bach1 in normal human lung fibroblasts assessed as induction of HMOX protein expression by measuring HMOX positive cells level at 0.078 uM in presence of 0.3 uM Nrf2 activator DMF incubated for 16 to 18 hrs by immunostaining relative to control DMSO; design: scale not given: the % may be the effect or the level left
[8] = molecular target: T1, Transcription regulator protein BACH1 (Homo sapiens); experiment: Inhibition of Bach1 in normal human lung fibroblasts assessed as induction of HMOX protein expression by measuring HMOX positive cells level at 0.156 uM in presence of 0.3 uM Nrf2 activator DMF incubated for 16 to 18 hrs by immunostaining relative to control DMSO; design: scale not given: the % may be the effect or the level left
[9] = molecular target: T1, Transcription regulator protein BACH1 (Homo sapiens); experiment: Inhibition of Bach1 in normal human lung fibroblasts assessed as induction of HMOX protein expression by measuring HMOX positive cells level at 0.019 uM in presence of 1 uM Nrf2 activator DMF incubated for 16 to 18 hrs by immunostaining relative to control DMSO; design: scale not given: the % may be the effect or the level left
[10] = molecular target: T1, Transcription regulator protein BACH1 (Homo sapiens); experiment: Inhibition of Bach1 in normal human lung fibroblasts assessed as induction of HMOX protein expression by measuring HMOX positive cells level at 0.078 uM in presence of 1 uM Nrf2 activator DMF incubated for 16 to 18 hrs by immunostaining relative to control DMSO; design: scale not given: the % may be the effect or the level left
[11] = molecular target: T1, Transcription regulator protein BACH1 (Homo sapiens); experiment: Inhibition of Bach1 in normal human lung fibroblasts assessed as induction of HMOX protein expression by measuring HMOX positive cells level at 0.019 uM in presence of 3 uM Nrf2 activator DMF incubated for 16 to 18 hrs by immunostaining relative to control DMSO; design: scale not given: the % may be the effect or the level left
[12] = molecular target: T1, Transcription regulator protein BACH1 (Homo sapiens); experiment: Inhibition of Bach1 in normal human lung fibroblasts assessed as induction of HMOX protein expression by measuring HMOX positive cells level at 0.019 uM in presence of 10 uM Nrf2 activator DMF incubated for 16 to 18 hrs by immunostaining relative to control DMSO; design: scale not given: the % may be the effect or the level left
[13] = molecular target: T1, Transcription regulator protein BACH1 (Homo sapiens); experiment: Inhibition of Bach1 in normal human lung fibroblasts assessed as induction of HMOX protein expression by measuring HMOX positive cells level at 0.039 uM in presence of 10 uM Nrf2 activator DMF incubated for 16 to 18 hrs by immunostaining relative to control DMSO; design: scale not given: the % may be the effect or the level left
[14] = molecular target: T1, Transcription regulator protein BACH1 (Homo sapiens); experiment: Inhibition of Bach1 in normal human lung fibroblasts assessed as induction of HMOX protein expression at 0.078 uM in presence of 0.03 uM Nrf2 activator DMF incubated for 16 to 18 hrs by immunostaining relative to control
[15] = molecular target: T1, Transcription regulator protein BACH1 (Homo sapiens); experiment: Inhibition of Bach1 in normal human lung fibroblasts assessed as induction of HMOX protein expression at 0.039 uM in presence of 0.1 uM Nrf2 activator DMF incubated for 16 to 18 hrs by immunostaining relative to control
[16] = molecular target: T1, Transcription regulator protein BACH1 (Homo sapiens); experiment: Inhibition of Bach1 in normal human lung fibroblasts assessed as induction of HMOX protein expression at 0.039 uM in presence of 0.3 uM Nrf2 activator DMF incubated for 16 to 18 hrs by immunostaining relative to control
[17] = molecular target: T1, Transcription regulator protein BACH1 (Homo sapiens); experiment: Inhibition of Bach1 in normal human lung fibroblasts assessed as induction of HMOX protein expression at 0.156 uM in presence of 0.3 uM Nrf2 activator DMF incubated for 16 to 18 hrs by immunostaining relative to control
[18] = molecular target: T1, Transcription regulator protein BACH1 (Homo sapiens); experiment: Inhibition of Bach1 in normal human lung fibroblasts assessed as induction of HMOX protein expression at 0.078 uM in presence of 1 uM Nrf2 activator DMF incubated for 16 to 18 hrs by immunostaining relative to control
[19] = molecular target: T1, Transcription regulator protein BACH1 (Homo sapiens); experiment: Inhibition of Bach1 in normal human lung fibroblasts assessed as induction of HMOX protein expression at 0.019 uM in presence of 10 uM Nrf2 activator DMF incubated for 16 to 18 hrs by immunostaining relative to control
[20] = molecular target: T1, Transcription regulator protein BACH1 (Homo sapiens); experiment: Inhibition of Bach1 in normal human lung fibroblasts assessed as induction of HMOX protein expression at 0.078 uM in presence of 30 uM Nrf2 activator DMF incubated for 16 to 18 hrs by immunostaining relative to control

SMILES	fold change (FC) [1]	Activity [2]	Activity [3]	Activity [4]	Activity [5]	Activity [6]	Activity [7]	Activity [8]	Activity [9]	Activity [10]	Activity [11]	Activity [12]	Activity [13]	fold change (FC) [14]	fold change (FC) [15]	fold change (FC) [16]	fold change (FC) [17]	fold change (FC) [18]	fold change (FC) [19]	fold change (FC) [20]
CNC(=O)c1ccc2c(c1)nc(Nc1nc3ccc(OC(F)(F)F)cc3s1)n2C	0.97	–	–	–	–	–	–	–	–	–	–	–	–	–	–	–	–	–	–	–
Cn1c(Nc2nc3ccc(C(F)(F)F)cc3s2)nc2cc(C(=O)NCCOCCO)ccc21	2.08	19.4%	28%	44.6%	7.63%	18.7%	61.5%	94.5%	26.4%	84.8%	80.2%	96.1%	99.2%	2.35	1.52	1.81	5.17	3.83	5.12	4.8
CN(C)C(=O)CNC(=O)c1ccc2c(c1)nc(Nc1nc3ccc(C(F)(F)F)cc3s1)n2C	1.29	3.6%	2.31%	8.24%	6.49%	12.8%	16.2%	50%	10.2%	37.7%	51.5%	94.2%	94.7%	1.37	1.35	1.61	3.06	2.53	5.75	6.18
COCCNC(=O)c1cnc2c(c1)nc(Nc1nc3ccc(OC(F)(F)F)cc3s1)n2C	1.24	2.31%	5.3%	7.05%	8.27%	13%	10.3%	30.1%	7.52%	29.4%	54.6%	92.6%	92%	1.12	1.08	1.59	2.06	2.29	4.94	4.52
